The values that follow come from ChEMBL document CHEMBL1141314, “SAR index: quantifying the nature of structure-activity relationships” (J Med Chem, 2007).

This assay in a line: Inhibition of ribonuclease A.

What is called Ki is the dissociation constant of the complex between target and ligand, obtained from inhibition or displacement. A higher Ki goes with weaker binding. Consider `Nc1ncnc2c1ncn2[C@@H]1O[C@H](COP(=O)(O)OP(=O)(O)OC2CC(n3ccc(=O)[nH]c3=O)OC2CO)[C@@H](O)[C@H]1O` (some centres not stated), for which the inhibition constant Ki came out at 11.3 µM. `Nc1ncnc2c1ncn2[C@@H]1O[C@H](COP(=O)(O)OP(=O)(O)O[C@H]2C[C@H](n3ccc(=O)[nH]c3=O)O[C@@H]2COP(=O)(O)O)[C@@H](OP(=O)(O)O)[C@H]1O` displayed an inhibitory constant (Ki) of 0.027 µM.
